# Laboratory results as given in ChEMBL document CHEMBL4613212, “Insights of synthetic analogues of anti-leprosy agents” (Bioorg Med Chem, 2019).
# Experiments:
# Mycobacterium leprae [1] = test: (§1) Inhibition of PGL1 synthesis in Mycobacterium leprae infected Swiss Webster mouse macrophages assessed as decrease in [U-14C]PA incorporation at 2 uM preincubated for 4 days post infection followed by [U-14C]PA addition and measured after 7 days by liquid scintillation counter analysis relative to control; type: functional
# Mycobacterium leprae [2] = test: as §1, with “20” for “2”; type: functional
# [3] = test system: Mycolicibacterium smegmatis; test: Antimicrobial activity against Mycobacterium smegmatis incubated for 30 to 32 hrs under shaking condition relative to control; type: functional
# [4] = test system: Mycolicibacterium smegmatis; test: Antimicrobial activity against Mycobacterium smegmatis incubated for 30 to 32 hrs under shaking condition; type: functional
# Mycobacterium leprae [5] = test: Anti-leprotic activity against rifampicin-susceptible Mycobacterium leprae subcultures at 4 weeks assessed as ATP level per 10^7 cells at 0.2 mg/L measured by bioluminescence assay (reference value: 425 +/- 64 pg); type: functional
# Mycobacterium leprae [6] = test: Anti-leprotic activity against rifampicin-susceptible Mycobacterium leprae subcultures at 4 weeks assessed as ATP level per 10^7 cells at 0.3 mg/L measured by bioluminescence assay (reference value: 425 +/- 64 pg); type: functional
# Mycobacterium leprae [7] = test: Anti-leprotic activity against rifampicin-susceptible Mycobacterium leprae subcultures at 4 weeks assessed as ATP level per 10^7 cells at 0.1 mg/L measured by bioluminescence assay (reference value: 425 +/- 64 pg); type: functional
# Mycobacterium leprae [8] = test: Anti-leprotic activity against rifampicin-susceptible Mycobacterium leprae primary cultures at 4 weeks assessed as [3H]thymidine uptake per 5 times 10^7 cells at 0.3 mg/L incubated for 24 hrs (reference value: 1.05 +/- 0.16 pmol); type: functional
# Mycobacterium leprae [9] = test: Anti-leprotic activity against rifampicin-susceptible Mycobacterium leprae primary cultures at 4 weeks assessed as ATP level per 10^7 cells at 0.1 mg/L measured by bioluminescence assay (reference value: 332 +/- 46 pg); type: functional
# Mycobacterium leprae [10] = test: Anti-leprotic activity against rifampicin-susceptible Mycobacterium leprae primary cultures at 4 weeks assessed as ATP level per 10^7 cells at 0.2 mg/L measured by bioluminescence assay (reference value: 332 +/- 46 pg); type: functional
# Mycobacterium leprae [11] = test: Anti-leprotic activity against rifampicin-susceptible Mycobacterium leprae primary cultures at 4 weeks assessed as ATP level per 10^7 cells at 0.3 mg/L measured by bioluminescence assay (reference value: 332 +/- 46 pg); type: functional
# Mycobacterium leprae [12] = test: Anti-leprotic activity against rifampicin-susceptible Mycobacterium leprae primary cultures at 4 weeks assessed as ATP level per 10^7 cells at 0.4 mg/L measured by bioluminescence assay (reference value: 332 +/- 46 pg); type: functional
# Mycobacterium leprae [13] = test: Anti-leprotic activity against rifampicin-susceptible Mycobacterium leprae primary cultures at 4 weeks assessed as [3H]thymidine uptake per 5 times 10^7 cells at 0.1 mg/L incubated for 24 hrs (reference value: 1.05 +/- 0.16 pmol); type: functional
# Mycobacterium leprae [14] = test: Anti-leprotic activity against rifampicin-susceptible Mycobacterium leprae primary cultures at 4 weeks assessed as [3H]thymidine uptake per 5 times 10^7 cells at 0.2 mg/L incubated for 24 hrs (reference value: 1.05 +/- 0.16 pmol); type: functional
# Mycobacterium leprae [15] = test: Anti-leprotic activity against rifampicin-susceptible Mycobacterium leprae primary cultures at 4 weeks assessed as [3H]thymidine uptake per 5 times 10^7 cells at 0.4 mg/L incubated for 24 hrs (reference value: 1.05 +/- 0.16 pmol); type: functional
# Mycobacterium leprae [16] = test: Anti-leprotic activity against rifampicin-susceptible Mycobacterium leprae subcultures at 4 weeks assessed as ATP level per 10^7 cells at 0.4 mg/L measured by bioluminescence assay (reference value: 425 +/- 64 pg); type: functional
# Mycobacterium leprae [17] = test: Anti-leprotic activity against rifampicin-susceptible Mycobacterium leprae subcultures at 4 weeks assessed as [3H]thymidine uptake per 5 times 10^7 cells at 0.1 mg/L incubated for 24 hrs (reference value: 1.41 +/- 0.20 pmol); type: functional
# Mycobacterium leprae [18] = test: Anti-leprotic activity against rifampicin-susceptible Mycobacterium leprae subcultures at 4 weeks assessed as [3H]thymidine uptake per 5 times 10^7 cells at 0.2 mg/L incubated for 24 hrs (reference value: 1.41 +/- 0.20 pmol); type: functional
# Mycobacterium leprae [19] = test: Anti-leprotic activity against rifampicin-susceptible Mycobacterium leprae subcultures at 4 weeks assessed as [3H]thymidine uptake per 5 times 10^7 cells at 0.3 mg/L incubated for 24 hrs (reference value: 1.41 +/- 0.20 pmol); type: functional
# Mycobacterium leprae [20] = test: Anti-leprotic activity against rifampicin-susceptible Mycobacterium leprae subcultures at 4 weeks assessed as [3H]thymidine uptake per 5 times 10^7 cells at 0.4 mg/L incubated for 24 hrs (reference value: 1.41 +/- 0.20 pmol); type: functional
# [21] = test system: Mycolicibacterium smegmatis; test: Antimycobacterial activity against DDS sensitive Mycobacterium smegmatis ATCC 607 […]; type: functional
# [22] = test system: Mycolicibacterium smegmatis; test: Antimycobacterial activity against DDS resistant Mycobacterium smegmatis ATCC 607 […]; type: functional
# Mycobacterium leprae [23] = test: Anti-leprotic activity against Mycobacterium leprae infected in BALB/c mouse assessed as time delay in bacterial multiplication in footpad at 0.01 g/100g of diet administered via feed starting 60 or 75 day post infection up to 90 days by Shepard's kinetic method; type: functional
# [24] = test system: Mycobacterium tuberculosis; test: Antitubercular activity against Mycobacterium tuberculosis H37Rv ATCC 27294 assessed as growth inhibition at 6.25 ug/ml by microplate alamar blue assay relative to control; type: functional
# [25] = Selectivity index, ratio of IC50 for African green monkey Vero cells to MIC for antitubercular activity against Mycobacterium tuberculosis H37Rv; type: toxicity; details: Vero cells, read-out: Selectivity Index
# [26] = test system: Mycobacterium tuberculosis; test: Antitubercular activity against Mycobacterium tuberculosis H37Rv ATCC 27294 assessed as inhibition of [3H]-thymidine incorporation relative to control; type: functional
# [27] = test system: Mycobacterium tuberculosis; test: Antimycobacterial activity against Mycobacterium tuberculosis H37Rv by BACTEC radiometric growth assay; type: functional
# [28] = test system: Mycobacterium tuberculosis; test: Antitubercular activity against Mycobacterium tuberculosis H37Rv ATCC 27294 incubated for 7 days by microplate alamar blue assay; type: functional; details: H37Rv ATCC 27294, 168 h
# Monocyte [29] = test: Antiinflammatory activity in human monocytes assessed as inhibition of LPS-induced TNFaplha production at 50 uM preincubated for 15 mins followed by LPS addition and measured after 4 hrs by ELISA relative to control; type: functional
# Monocyte [30] = test: Antiinflammatory activity in human monocytes assessed as inhibition of LPS-induced TNFaplha production at 25 uM preincubated for 15 mins followed by LPS addition and measured after 4 hrs by ELISA relative to control; type: functional
# Monocyte [31] = test: Antiinflammatory activity in human monocytes assessed as inhibition of LPS-induced TNFaplha production at 5 uM preincubated for 15 mins followed by LPS addition and measured after 4 hrs by ELISA relative to control; type: functional
# [32] = Cytotoxicity against LPS-induced human monocytes assessed as cell viability at 50 uM by tryphan blue staining based assay relative to control; set-up: species or system Monocyte; details: read-out: Activity
# Mycobacterium leprae [33] = test: as §1, with “0.2” for “2”; type: functional
# Staphylococcus aureus = test: Antimicrobial activity against Staphylococcus aureus assessed as zone of inhibition incubated for 20 hrs by agar well diffusion assay; type: functional
# Escherichia coli = test: Antimicrobial activity against Escherichia coli assessed as zone of inhibition incubated for 20 hrs by agar well diffusion assay; type: functional
structure (smiles),measurement,setting,value
CCc1cc(C(N)=S)ccn1 [ETHIONAMIDE],inhibition at 2 µM,Mycobacterium leprae [1],77%
same,inhibition at 20 µM,Mycobacterium leprae [2],97%
CCn1cc(C(=O)N/N=C\c2cc(OC)c(OC)c(OC)c2)c(=O)c2cc(F)c(N3CCN(C)CC3)cc21,Activity,[3],>30%
same,MIC,[4],81.2 µM
CCC(C)N1CCN(c2cc(O)c3nc4c5c6c7c(C)c(O)c5c(=O)c(c-4oc3c2)NC(=O)/C(C)=C\C=C\[C@H](C)[C@H](O)[C@@H](C)[C@@H](O)[C@@H](C)[C@H](OC(C)=O)[C@H](C)[C@@H](OC)/C=C/O[C@@](C)(O7)C6=O)CC1 (stereo in doubt; form 1),Activity,Mycobacterium leprae [5],235 pg
same,Activity,Mycobacterium leprae [6],0 pg
same,Activity,Mycobacterium leprae [7],335 pg
same,Activity,Mycobacterium leprae [8],0 pmol
same,Activity,Mycobacterium leprae [9],279 pg
same,Activity,Mycobacterium leprae [10],233 pg
same,Activity,Mycobacterium leprae [11],0 pg
same,Activity,Mycobacterium leprae [12],0 pg
same,Activity,Mycobacterium leprae [13],0.92 pmol
same,Activity,Mycobacterium leprae [14],0.76 pmol
same,Activity,Mycobacterium leprae [15],0 pmol
same,Activity,Mycobacterium leprae [16],0 pg
same,Activity,Mycobacterium leprae [17],0 pmol
same,Activity,Mycobacterium leprae [18],1.18 pmol
same,Activity,Mycobacterium leprae [19],0.84 pmol
same,Activity,Mycobacterium leprae [20],0 pmol
COc1ccc(S(=O)(=O)c2ccc(N)cc2)cc1,MIC,[21],256 µg/mL
same,MIC,[22],> 500 µg/mL
same,Time,Mycobacterium leprae [23],<10 days
c1ccc(Cn2cnc3c(-c4ccco4)ncnc32)cc1 [9-BENZYL-6-(FURAN-2-YL)-9H-PURINE],inhibition at 6.25 µg/mL,[24],> 90%
same,selectivity ratio,[25],2.7
same,inhibition (INH),[26],59%
CO[C@H]1/C=C/O[C@@]2(C)Oc3c(C)c(O)c4c(O)c(c(/C=N/N5CCN(C)CC5)c(O)c4c3C2=O)NC(=O)/C(C)=C\C=C\[C@H](C)[C@H](O)[C@@H](C)[C@@H](O)[C@@H](C)[C@H](OC(C)=O)[C@@H]1C [RIFAMPIN],Activity,Mycobacterium leprae [6],0 pg
same,MIC,[27],2 µg/mL
same,inhibition at 2 µM,Mycobacterium leprae [1],86%
same,MIC,[28],25 µg/mL
same,Activity,Mycobacterium leprae [8],0 pmol
same,Activity,Mycobacterium leprae [11],0 pg
same,Activity,Mycobacterium leprae [12],0 pg
same,Activity,Mycobacterium leprae [14],0.7 pmol
same,Activity,Mycobacterium leprae [15],0 pmol
same,Activity,Mycobacterium leprae [16],0 pg
same,Activity,Mycobacterium leprae [18],0 pmol
same,Activity,Mycobacterium leprae [19],0.73 pmol
same,Activity,Mycobacterium leprae [20],0 pmol
O=C1c2ccccc2C(=O)N1c1cnc(O)nc1O,inhibition at 50 µM,Monocyte [29],< 10%
same,inhibition at 25 µM,Monocyte [30],< 10%
same,inhibition at 5 µM,Monocyte [31],< 10%
same,viability at 50 µM,[32],91%
CCCN1CCN(c2cc(O)c3nc4c5c6c7c(C)c(O)c5c(=O)c(c-4oc3c2)NC(=O)/C(C)=C\C=C\[C@H](C)[C@H](O)[C@@H](C)[C@@H](O)[C@@H](C)[C@H](OC(C)=O)[C@H](C)[C@@H](OC)/C=C/O[C@@](C)(O7)C6=O)CC1,Activity,Mycobacterium leprae [5],0 pg
same,Activity,Mycobacterium leprae [6],0 pg
same,Activity,Mycobacterium leprae [7],369 pg
same,Activity,Mycobacterium leprae [8],0 pmol
same,Activity,Mycobacterium leprae [9],298 pg
same,Activity,Mycobacterium leprae [10],245 pg
same,Activity,Mycobacterium leprae [11],0 pg
same,Activity,Mycobacterium leprae [12],0 pg
same,Activity,Mycobacterium leprae [13],0.97 pmol
same,Activity,Mycobacterium leprae [14],0.79 pmol
same,Activity,Mycobacterium leprae [15],0 pmol
same,Activity,Mycobacterium leprae [16],0 pg
same,Activity,Mycobacterium leprae [17],0 pmol
same,Activity,Mycobacterium leprae [18],1.3 pmol
same,Activity,Mycobacterium leprae [19],0.84 pmol
same,Activity,Mycobacterium leprae [20],0 pmol
CCn1cc(C(=O)N/N=C\c2cccc(O)c2)c(=O)c2cc(F)c(N3CCN(C)CC3)cc21,Activity,[3],>30%
same,MIC,[4],27.2 µM
CCN(CC)CCC/N=c1/cc2n(-c3ccc(Cl)cc3)c3ccccc3nc-2cc1Nc1ccc(Cl)cc1,inhibition at 2 µM,Mycobacterium leprae [1],90%
same,inhibition at 0.2 µM,Mycobacterium leprae [33],22%
Clc1nc(-c2cccs2)c2ncn(Cc3ccccc3)c2n1,inhibition at 6.25 µg/mL,[24],> 90%
same,selectivity ratio,[25],> 6.4
C[C@@H](O)[C@H]1C(=O)N2C(C(=O)O)=C(SCCNC=N)C[C@H]12 [IMIPENEM ANHYDROUS],diameter of the inhibition zone (DIZ),Staphylococcus aureus,31 mm
same,diameter of the inhibition zone (DIZ),Escherichia coli,35 mm
